In PMC7436059, “Synthesis, Characterization, Photoluminescence, Molecular Docking and Bioactivity of Zinc (II) Compounds Based on Different Substituents” (Molecules, 2020):

Tests used:
[1] = test system: human esophageal cancer cell line (Eca-109); assay: CCK-8 antiproliferative assay, Eca-109; assay type: cell-based; details: Eca-109, CCK-8, 72 h incubation
Description: (§1) The in vitro antiproliferative properties of complexes 1–6 against Eca-109, A549 and Bel-7402 tumor lines were examined by employing the CCK-8 assay with cisplatin as a positive control. […] It is interesting that the different cells respond distinctively to these complexes. The complexes display remarkable cytotoxicity against Eca-109 in comparison to A549 and Bel-7402. […] Compared with that of zinc chloride complexes, the antiproliferative activity of these complexes is stronger. This activity of the bromide complexes follows the order of 1 > 3 > 5 and that of the iodide complexes is 2 > 4 > 6. […] It is worth mentioning that, among these compounds, the order of the activity is consistent with the electronegativity values (methylsulfonyl (−2.96) < methoxy (−2.86) < methyl (−2.28) of the substituents.
(§2) In this assay, human esophageal cancer cell line (Eca-109), human lung cancer cell line (A549), human hepatocellular carcinoma cell line (Bel-7402) and mouse monocyte macrophage (RAW264.7) were used to evaluate the antiproliferative activities or cytotoxicity in vitro by CCK-8 assay for determining cell viability with cisplatin as the positive control. All the cells are purchased from the American Type Culture Collection (Manassas, VA, USA). The cells were cultured in 100 µL complete DMEM growth media containing 10% FBS and 1% PS. First, 3000 cells were added to 96-well plates and were cultured overnight in a humidified atmosphere at 37 °C with 5% CO2. Then, complexes 1–6 and cisplatin were diluted with complete DMEM growth media to obtain the working concentration, which was added to the tissue culture plate and incubated for 72 h. The CCK-8 solution was added to each well. After 3 h incubation, the absorbance of each well at 490 nm was measured using an enzyme labeling instrument (Tecan, Grödig, Salzburg, Austrla). Cell morphology was measured and imaged by an inverted microscope (Nikon eclipses TS100, Tokyo, Japan) and a Nikon digital camera (Tokyo, Japan). The 50% inhibitive concentration (IC50) was calculated by Graph Pad Prism 5.0 (San Diego, CA, USA).

[2] = test system: human lung cancer cell line (A549); assay: CCK-8 antiproliferative assay, A549; assay type: cell-based; details: A549, CCK-8, 72 h incubation
Description: as §1, §2

[3] = test system: human hepatocellular carcinoma cell line (Bel-7402); assay: CCK-8 antiproliferative assay, Bel-7402; assay type: cell-based; details: Bel-7042, CCK-8, 72 h incubation
Description: as §1, §2

BSA = molecular target: T1, BSA (Bos taurus, UniProt P02769); assay: BSA fluorescence quenching titration (Stern-Volmer, Scatchard); assay type: binding, bovine; details: 1.6 μM BSA, Tris-HCl buffer; for Ksv (Stern-Volmer quenching constant): excitation 280 nm; for n (binding site number): Scatchard equation; for Kq (quenching rate constant): τ0 = 10^−8 s
T1 construct: purchased Asbio
Description: The structure and transmission characteristics of BSA are similar to HSA [36]. BSA was used instead of HSA for drug delivery due to its ease to purify and stability. The binding of metal complexes to proteins was studied by fluorescence spectrum titration. Endogenous fluorescence of BSA comes from residues as tryptophan (Trp), tyrosine (Tyr) and phenylalanine (Phe), and conformational changes of BSA-binding metal complexes are obtained by observing the fluorescence of Trp residues at 350 nm. […] The same phenomenon occurs for the other compounds (shown in Figure S22, Supplementary Materials). […] This appearance may be due to a resonant energy transfer. […] The Stern–Volmer equation [37] (Equation (1)) was used to study the quenching mechanism of BSA and the complexes:I0/I = 1 + Kqτ0[Q] = 1 + Ksv[Q](1) where the fluorescence intensity of the protein is expressed by I0 and I in absence and in presence of quencher, respectively; Ksv is the Stern–Volmer quenching rate constant; Kq is the quenching rate constant; and τ0 and [Q] represent the lifetime of fluorescent molecule in absence of quencher (valued 10^−8 s) and quencher concentration, respectively. The maximum causing a value of dynamic quenching in biopolymers is 2 × 10^10 M^−1 S^−1 [23].
Calculation of the binding constants (Kb) was achieved according to the Scatchard equation [38] (Equation (2)):log [(I0 − I)/I] = logKb + nlog[Q](2) where Kb and n represent the binding constant and the binding site number, respectively. The binding constants Kb and the binding site number were obtained from the intercept and slope of the double logarithm regression plot between log [(I0 − I)/I] and log [Q]. The binding constant (>104 L mol^−1) was obtained under the condition of high binding affinity. […] It can be seen in Figure 7 that the absorption spectra of the complexes partially overlap with the […] spectrum of BSA.
Bovine serum albumin (BSA) was dissolved in a Tris-HCl buffer (pH = 7.4) solution to prepare a 1.6 × 10^−6 M BSA solution. The protein concentration was measured by spectrophotometry at 280 nm with the extinction coefficient of 44,300 M^−1 cm^−1. Stock solutions of complexes 1–6 (1 × 10^−2 M) were prepared in DMSO. The emission spectrum (300–600 nm) of BSA was monitored at the excitation wavelength of 280 nm.

T1 sequence (P02769 25-607): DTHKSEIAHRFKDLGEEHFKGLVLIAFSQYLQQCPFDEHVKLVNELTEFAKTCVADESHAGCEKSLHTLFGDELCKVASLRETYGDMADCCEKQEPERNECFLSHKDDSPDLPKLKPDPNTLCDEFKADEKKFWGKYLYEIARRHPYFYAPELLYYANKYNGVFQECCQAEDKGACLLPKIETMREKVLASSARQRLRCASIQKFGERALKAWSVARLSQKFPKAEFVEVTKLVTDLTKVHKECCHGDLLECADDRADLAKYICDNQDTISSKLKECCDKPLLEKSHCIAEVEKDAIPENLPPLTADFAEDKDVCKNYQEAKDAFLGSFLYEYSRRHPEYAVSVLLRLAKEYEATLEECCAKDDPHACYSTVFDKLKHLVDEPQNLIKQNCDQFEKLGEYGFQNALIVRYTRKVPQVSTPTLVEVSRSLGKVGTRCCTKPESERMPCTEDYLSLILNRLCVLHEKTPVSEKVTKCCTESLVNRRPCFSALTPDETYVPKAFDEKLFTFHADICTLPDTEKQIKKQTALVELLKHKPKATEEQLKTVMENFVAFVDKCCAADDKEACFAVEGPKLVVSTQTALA

Row | Compound | IC50 [1] [nM] | IC50 [2] [nM] | IC50 [3] [nM] | Ksv (Stern-Volmer quenching constant) (BSA) [M⁻¹] | n (binding site number) (BSA) | Kq (quenching rate constant) (BSA) [M⁻¹ s⁻¹]
1 | CS(=O)(=O)c1ccc(-c2cc(-c3ccccn3)nc(-c3ccccn3)c2)cc1.[I][Zn][I] [Compound 2, [ZnI2L^1]] | 66 | 290 | 331 | 176000 | 0.83 | 1.76e+13
2 | CS(=O)(=O)c1ccc(-c2cc(-c3ccccn3)nc(-c3ccccn3)c2)cc1.[Br][Zn][Br] [Compound 1, [ZnBr2L^1]] | 79 | – | 358 | 176000 | 0.72 | 1.76e+13
3 | COc1ccc(-c2cc(-c3ccccn3)nc(-c3ccccn3)c2)cc1.[I][Zn][I] [Compound 4, [ZnI2L^2]] | 75 | 307 | 397 | 163000 | 1.08 | 1.63e+13
4 | N.N.[Cl][Pt][Cl] [cisplatin, reference compound] | 5460 | 12000 | 3090 | – | – | –
5 | COc1ccc(-c2cc(-c3ccccn3)nc(-c3ccccn3)c2)cc1.[Br][Zn][Br] [Compound 3, [ZnBr2L^2]] | 169 | 482 | 414 | 115000 | 1.07 | 1.15e+13
6 | Cc1ccc(-c2cc(-c3ccccn3)nc(-c3ccccn3)c2)cc1.[Br][Zn][Br] [Compound 5, [ZnBr2L^3]] | 197 | 748 | 616 | 46300 | 0.87 | 4.63e+12
7 | Cc1ccc(-c2cc(-c3ccccn3)nc(-c3ccccn3)c2)cc1.[I][Zn][I] [Compound 6, [ZnI2L^3]] | 146 | 945 | – | 76700 | 0.89 | 7.67e+12
